We go through six compounds from patent US6998394B2, “Process for isolating physalins from plants and pharmaceutical compositions containing physalins” (Fundacao Oswaldo Cruz - FIOCRUZ, priority 1999, dated 2006).

Converted amounts (≈) assume the structure as drawn.

In data set [1] the test system is trypomastigotes of Trypanosoma cruzi (Y strain). Put plainly: In vitro antitrypanosomial activity against T. cruzi trypomastigotes (count of viable parasites). Format: cell-based. On the procedure: In vitro studies using pure physalins are carried out with trypomastigotes of Trypanosoma cruzi.
T. cruzi Y strain is maintained in MK2 strain cell culture in a RPMI medium+10% bovine fetal serum, at 37° C., under 5% CO2. This material is centrifuged during 15 minutes at 1500 rpm. Afterwards, the material is maintained in rest at 37° C. for 2 hours. The supernatant is centrifuged again during 30 minutes at 3000 rpm. The trypomastigotes (5×10^5/well) in RPMI medium with 10% bovine fetal serum and antibiotic are incubated in wells with different concentrations of physalin B or physalin D. After 24–48 hours, the viable parasites maintained at a temperature of 4° C. are counted. Each experiment was carried out in triplicate.

Data set [2] deals with human tumors like hepatoma, cervix uteri, lung and colon cells. The conditions noted are these: in vivo and in vitro tests; cited from earlier work.
Data set [3] relates to Trypanosoma brucei rhodesiense. The following applies: commonly used trypanocidal drug; cited from earlier work.
Data set [4] relates to IL-6 production by macrophages. The data set is described as follows: IL-6 production by LPS-stimulated peritoneal macrophages (ELISA). Format: cell-based. The following applies: LPS 500 ng/ml, various concentrations, supernatants 4 hours after stimulation, FIG. 3B. The procedure:
(§1) In a first test, thyoglycollate-elicited peritoneal macrophages were stimulated with LPS (500 ng/ml) in the presence of various concentrations of physalin B. Cell-free supernatants were collected 4 hours after stimulation and tested for TNα and IL-6 production by ELISA.

Data set [5] concerns IL-2 production by ConA stimulated splenocytes. The data set is described as follows: IL-2 production by ConA-stimulated splenocytes (ELISA). The format is cell-based, BALB/c. The conditions noted are these: ConA 1 μg/ml, several concentrations, 24 hours, FIG. 8. On the procedure:
In a sixth test, BALB/c spleen cells were stimulated with ConA (1 μg/ml) in the presence of several concentrations of physalin B. Cell-free supernatants were collected 24 hours after stimulation and tested for IL-2 production by ELISA.
For orientation: In an ELISA, binding on a coated surface is turned into a signal by an enzyme label.

The test system of data set [6] is promastigotes of Leishmania amazonensis. The data set is described as follows: In vitro antileishmanicidal activity on promastigotes (MTT viability). The following applies: 20 μg/ml. Format: cell-based. On the procedure: Stationary phase promastigotes of Leishmania amazonensis were obtained from parasite cultures in LIT medium with 10% bovine fetal serum. The assays were standardized in plates with 96 wells. Promastigotes were plaque harbored, in triplicate, in 100 μl of LIT medium. 10 μl of physalin B solution and 10 μl of a positive control (Amphotericin B) are added to the wells. Several dilutions were used. Parasite viability was determined after incubation with MTT by reading the absorbance at 570 nm in ELISA Microplate.

The subject of data set [7] is TNFα production by macrophages. Put plainly: TNFα production by LPS-stimulated peritoneal macrophages (ELISA). The conditions noted are these: LPS 500 ng/ml, various concentrations, supernatants 4 hours after stimulation, FIG. 3A. The format is cell-based. The procedure: as §1
For data set [8], the system named is ConA stimulated splenocytes. Put plainly: Proliferation of ConA-stimulated splenocytes (3H thymidine uptake). The conditions noted are these: ConA 1 μg/ml, several concentrations, FIG. 7. Format: cell-based, BALB/c. The procedure:
In a fifth test, BALB/c spleen cells were stimulated with ConA (1 μg/ml) in the presence of several concentrations of physalin B. After 24 hours, cultures were pulsed with ^3H thymidine. Proliferation was assessed by measurement of thymidine uptake.

Data set [9] deals with Leishmania amazonensis in peritoneal macrophages. The data set is described as follows: In vitro infection assay using peritoneal macrophages infected with Leishmania amazonensis. The conditions noted are these: 10 μg/ml. Format: cell-based. On the procedure: Peritoneal macrophages were incubated during 2 hours at 37° C. in 24 wells plates with laminas. After washing to remove non-bound cells, the wells were incubated with stationary phase promastigotes of Leishmania amazonensis (parasites/macrophages in a ratio of 10:1). After 18 hours, the cultures were washed to remove the free parasites. After 24 hours, physalin B solution is added to the wells. The laminas are collected, fixed with methanol and dyed with Giemsa. The infection level was determined by counting parasite quantity and the infected macrophages percentage.

The test system of data set [10] is nitric oxide production by macrophages. The data set is described as follows: Nitric oxide (nitrite) production by stimulated peritoneal macrophages (Griess assay). The conditions noted are these: 24 hours. Format: cell-based. The procedure:
In a second test, thyoglycollate-elicited peritoneal macrophages were stimulated with LPS (500 ng/ml), IFNγ (5 ng/ml), or IFNγ +LPS in the presence of various concentrations of physalin B. Cell-free supernatants were collected 24 hours after stimulation and tested for nitrite production by Griess assay.
In a third test, thyoglycollate-elicited peritoneal macrophages were stimulated with LPS (500 ng/ml)+IFNγ (5 ng/ml). Physalin B (2 μg/ml) was added 0, 2, 4 and 6 hours after IFNγ+LPS stimulation. Cell-free supernatants were collected 24 hours after stimulation and tested for nitrite production by Griess assay. IFNγ+LPS was used as control.
In a fourth test, thyoglycollate-elicited peritoneal macrophages were stimulated with LPS (500 ng/ml)+IFNγ (5 ng/ml) in the presence of physalin B (2 μg/ml) or indomethacyn (1 μg/ml). Cell-free supernatants were collected 24 hours after stimulation and tested for nitrite production by Griess assay.
Background: The Griess reaction detects nitrite, a stable product of nitric oxide.

Data set [11] concerns BALB/c spleen cells or thyoglycollate-elicited peritoneal macrophages. Put plainly: Viability of spleen cells and peritoneal macrophages (MTT). The format is cell-based. The following applies: one day or three days of culturing, FIG. 9. The procedure: In the last test, BALB/c spleen cells or thyoglycollate-elicited peritoneal macrophages were cultured in the presence of several concentrations of physalin B. After one day (FIG. 9B) or three days (FIG. 9A) of culturing, plates were pulsed with MTT. Cell-viability was evaluated 2 hours later by optical density measuring at 570 nm.

For `C[C@@]12C[C@H]3OC(=O)[C@@H]1CO[C@@]14O[C@]5([C@H]2C1=O)[C@@](O)(CC[C@H]1[C@H]4C[C@@H](O)[C@@]2(O)CC=CC(=O)[C@]12C)C(=O)O[C@@]35C` [Physalin D], the “Mortality of Parasite (%)” value in [1] (dose 40 μg/ml, contact period 24 hours) worked out at 100%; in data set [1] (dose 40 μg/ml, contact period 48 hours), 100%. Moreover, in [2], the “activity against human tumors” value was “active”.
As to `C[C@@]12C[C@H]3OC(=O)[C@@H]1CO[C@]14O[C@]5([C@H]2C1=O)[C@@](O)(CC[C@H]1[C@H]4C[C@H]2O[C@]24CC=CC(=O)[C@]14C)C(=O)O[C@@]35C` [physalin F], the “activity against human tumors” value in data set [2] is “active”.
One may read the IC50 as the concentration that gives 50% inhibition. For `Cc1ccc(C(=O)Nc2ccc(S(=O)(=O)O)c3cc(S(=O)(=O)O)cc(S(=O)(=O)O)c23)cc1NC(=O)c1cccc(NC(=O)Nc2cccc(C(=O)Nc3cc(C(=O)Nc4ccc(S(=O)(=O)O)c5cc(S(=O)(=O)O)cc(S(=O)(=O)O)c45)ccc3C)c2)c1` [suramin], the IC50 in [3] was 0.0107 µg/mL (≈ 8.25 nM).
Take `C=C1C(=O)O[C@@H]2C[C@@]1(C)[C@@H]1C(=O)[C@]3(O)O[C@]14[C@@]2(C)OC(=O)[C@@]4(O)CC[C@H]1[C@H]3[C@H](O)C=C2CC=CC(=O)[C@@]21C` [physalin A]: the “activity against human tumors” value in data set [2] is “active”.
As for `C[C@]12C(=O)C=CCC1=CC[C@@H]1[C@@H]2CC[C@]2(O)C(=O)O[C@@]3(C)[C@H]4C[C@]5(C)[C@@H](CO[C@@]16O[C@@]32[C@H]5C6=O)C(=O)O4` [Physalin B], the “IL-6 production by macrophages” value in [4] is listed as “inhibitory properties”. In addition, the “IL-2 production by ConA stimulated splenocytes” value in data set [5] is given as “inhibits IL-2 production”. Moreover, the “Mortality of Parasite (%)” value amounted to 100% in data set [1] (dose 2.5 mg/ml, contact period 24 hours) and 100% in data set [1] (dose 2.5 mg/ml, contact period 48 hours). In data set [6], this compound displayed a parasite mortality of 100%. Besides, in data set [7], the “TNFα production by macrophages” value is on record as “inhibitory properties”. For the same compound, the “proliferation of ConA stimulated splenocytes (thymidine uptake)” value in data set [8] is “inhibits proliferation”. The “in vitro reduction in the infection of peritoneal macrophages” value in data set [9] is listed as 100%. The “nitric oxide production, physalin B added at different times” value in data set [10] (2 μg/ml added 0, 2, 4 and 6 hours after IFNγ+LPS stimulation, FIG. 5) is listed as “time-dependence of the inhibition”. For the same compound, in [10] (LPS 500 ng/ml, IFNγ 5 ng/ml or IFNγ+LPS, various concentrations, FIG. 4), the “nitric oxide production by macrophages” value is “inhibitory properties”. Also, in [10] (LPS+IFNγ, physalin B 2 μg/ml, indomethacyn 1 μg/ml, FIG. 6), the “nitric oxide production in the presence of indomethacyn” value is “addition of indomethacyn does not block the inhibition”. Further, the “concentrations at which non-toxic in vitro (cell viability, MTT)” value in data set [11] is “below 5 μg/ml”.
Turning to `C[C@@H]1C(=O)O[C@@H]2C[C@@]1(C)C1C(=O)[C@]3(O)O[C@@]14[C@@](O)(CCC1C3[C@H](O)C=C3C=CCC(=O)[C@@]31C)C(=O)O[C@@]24C` (stereo partly shown) [physalin L], the “activity against human tumors” value in data set [2] is reported as “active”.
